Laboratory results from ChEMBL document CHEMBL5465560, “Selectivity Literature for EUbOPEN Chemogenomic Library” (2024).

Experiments:
[1] = biological target: Serine/threonine-protein kinase Chk2 (Homo sapiens) (UniProt O96017); test: Selectivity interaction (KinomeScan (DiscoverX)) EUB0000655a CHEK2; settings: at 10 µM
[2] = biological target: Mitogen-activated protein kinase kinase kinase 1 (Homo sapiens, UniProt Q13233); test: Selectivity interaction (ProQinase) EUB0000171b MAP3K1
[3] = biological target: T1, Serine/threonine-protein kinase PLK4 (Homo sapiens) (UniProt O00444); test: Selectivity interaction (Kinase panel (DSF assay)) EUB0001559a PLK4
T1 sequence (whole entry): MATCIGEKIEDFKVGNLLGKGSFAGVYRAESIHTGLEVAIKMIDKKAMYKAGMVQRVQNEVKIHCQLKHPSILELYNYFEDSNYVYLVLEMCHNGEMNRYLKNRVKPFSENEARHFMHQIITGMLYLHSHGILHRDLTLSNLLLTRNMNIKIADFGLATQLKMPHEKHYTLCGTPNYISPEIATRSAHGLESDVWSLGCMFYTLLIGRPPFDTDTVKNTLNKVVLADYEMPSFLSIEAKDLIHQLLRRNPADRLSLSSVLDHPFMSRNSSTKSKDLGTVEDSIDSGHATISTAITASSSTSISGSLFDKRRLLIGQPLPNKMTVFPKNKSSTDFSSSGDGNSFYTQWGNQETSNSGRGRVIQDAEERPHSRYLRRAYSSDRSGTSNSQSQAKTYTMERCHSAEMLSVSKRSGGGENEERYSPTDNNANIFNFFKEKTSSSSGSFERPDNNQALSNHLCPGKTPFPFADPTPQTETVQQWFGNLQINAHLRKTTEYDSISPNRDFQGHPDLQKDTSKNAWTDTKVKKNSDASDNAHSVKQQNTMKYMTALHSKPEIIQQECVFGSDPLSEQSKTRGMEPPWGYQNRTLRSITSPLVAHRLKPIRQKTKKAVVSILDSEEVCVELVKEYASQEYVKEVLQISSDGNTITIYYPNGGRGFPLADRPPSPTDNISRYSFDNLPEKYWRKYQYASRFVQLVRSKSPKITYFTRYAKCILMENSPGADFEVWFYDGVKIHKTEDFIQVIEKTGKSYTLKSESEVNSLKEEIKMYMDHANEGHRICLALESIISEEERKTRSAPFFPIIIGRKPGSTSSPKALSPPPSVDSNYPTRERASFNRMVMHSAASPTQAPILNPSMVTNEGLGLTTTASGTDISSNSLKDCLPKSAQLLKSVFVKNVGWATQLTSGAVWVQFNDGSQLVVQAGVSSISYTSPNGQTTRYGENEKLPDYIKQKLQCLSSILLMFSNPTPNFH

Aurora kinase B = Aurora kinase B (Homo sapiens, UniProt Q96GD4); test: Selectivity interaction (Kinase panel (Enzyme activity assay)) EUB0000612a AURKB
Chain of Aurora kinase B (Q96GD4 whole entry, canonical isoform): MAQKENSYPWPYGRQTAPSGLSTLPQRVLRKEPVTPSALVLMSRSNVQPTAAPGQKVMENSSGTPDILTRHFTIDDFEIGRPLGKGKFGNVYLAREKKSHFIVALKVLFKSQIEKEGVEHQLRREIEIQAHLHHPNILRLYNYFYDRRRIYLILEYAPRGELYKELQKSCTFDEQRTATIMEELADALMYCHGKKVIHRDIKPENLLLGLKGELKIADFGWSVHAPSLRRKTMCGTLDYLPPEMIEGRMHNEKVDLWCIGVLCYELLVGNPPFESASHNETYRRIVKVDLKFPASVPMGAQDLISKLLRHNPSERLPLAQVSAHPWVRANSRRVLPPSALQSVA

[4] = test system: Phosphatidylinositol 4,5-bisphosphate 3-kinase catalytic subunit alpha isoform (Homo sapiens), P42336 [C420R]; test: (§1) Selectivity interaction (KinomeScan (DiscoverX)) EUB0001049a PIK3CA; settings: at 1 µM
[5] = test system: Phosphatidylinositol 4,5-bisphosphate 3-kinase catalytic subunit alpha isoform (Homo sapiens), P42336 [E545A]; test: as §1; settings: at 1 µM
[6] = biological target: Phosphatidylinositol 4,5-bisphosphate 3-kinase catalytic subunit alpha isoform (Homo sapiens) (UniProt P42336); test: as §1; settings: at 1 µM
[7] = test system: Phosphatidylinositol 4,5-bisphosphate 3-kinase catalytic subunit alpha isoform (Homo sapiens), P42336 [I800L]; test: as §1; settings: at 1 µM
[8] = test system: Phosphatidylinositol 4,5-bisphosphate 3-kinase catalytic subunit alpha isoform (Homo sapiens), P42336 [H1047L]; test: as §1; settings: at 1 µM
[9] = test system: Phosphatidylinositol 4,5-bisphosphate 3-kinase catalytic subunit alpha isoform (Homo sapiens), P42336 [Q546K]; test: as §1; settings: at 1 µM
[10] = test system: Phosphatidylinositol 4,5-bisphosphate 3-kinase catalytic subunit alpha isoform (Homo sapiens), P42336 [E542K]; test: as §1; settings: at 1 µM
[11] = test system: Phosphatidylinositol 4,5-bisphosphate 3-kinase catalytic subunit alpha isoform (Homo sapiens), P42336 [E545K]; test: as §1; settings: at 1 µM
[12] = test system: Phosphatidylinositol 4,5-bisphosphate 3-kinase catalytic subunit alpha isoform (Homo sapiens), P42336 [H1047Y]; test: as §1; settings: at 1 µM
Chain of Phosphatidylinositol 4,5-bisphosphate 3-kinase catalytic subunit alpha isoform (Homo sapiens), P42336 [H1047Y] (P42336 whole entry H1047Y, canonical isoform): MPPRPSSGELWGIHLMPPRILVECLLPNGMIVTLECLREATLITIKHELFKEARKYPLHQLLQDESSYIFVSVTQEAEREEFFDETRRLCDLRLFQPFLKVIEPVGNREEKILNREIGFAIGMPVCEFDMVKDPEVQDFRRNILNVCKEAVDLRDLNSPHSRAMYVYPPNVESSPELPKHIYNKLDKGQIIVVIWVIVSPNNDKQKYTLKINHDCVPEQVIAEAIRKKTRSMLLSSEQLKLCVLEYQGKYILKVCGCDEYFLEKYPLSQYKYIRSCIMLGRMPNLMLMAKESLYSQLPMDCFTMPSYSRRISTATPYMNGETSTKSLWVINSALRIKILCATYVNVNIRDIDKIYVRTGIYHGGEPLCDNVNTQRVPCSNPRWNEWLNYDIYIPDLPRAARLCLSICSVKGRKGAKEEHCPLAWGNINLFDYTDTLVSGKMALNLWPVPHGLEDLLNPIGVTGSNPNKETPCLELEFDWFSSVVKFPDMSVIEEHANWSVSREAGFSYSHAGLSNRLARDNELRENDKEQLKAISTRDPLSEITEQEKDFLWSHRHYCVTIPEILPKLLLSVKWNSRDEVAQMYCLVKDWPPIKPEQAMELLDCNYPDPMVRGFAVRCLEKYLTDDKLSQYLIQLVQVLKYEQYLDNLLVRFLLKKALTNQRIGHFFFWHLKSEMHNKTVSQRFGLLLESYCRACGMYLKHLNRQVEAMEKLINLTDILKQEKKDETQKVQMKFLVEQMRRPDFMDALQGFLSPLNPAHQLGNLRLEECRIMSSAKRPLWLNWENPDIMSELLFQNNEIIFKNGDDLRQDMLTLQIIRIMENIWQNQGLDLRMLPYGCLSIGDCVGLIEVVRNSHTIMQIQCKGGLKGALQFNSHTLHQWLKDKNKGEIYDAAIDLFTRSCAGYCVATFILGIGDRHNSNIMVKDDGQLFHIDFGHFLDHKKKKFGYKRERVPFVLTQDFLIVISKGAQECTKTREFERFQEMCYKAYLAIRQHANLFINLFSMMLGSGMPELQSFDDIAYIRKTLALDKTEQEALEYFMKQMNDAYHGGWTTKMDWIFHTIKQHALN

[13] = test system: Phosphatidylinositol 4,5-bisphosphate 3-kinase catalytic subunit alpha isoform (Homo sapiens), P42336 [M1043I]; test: as §1; settings: at 1 µM
Chain of Phosphatidylinositol 4,5-bisphosphate 3-kinase catalytic subunit alpha isoform (Homo sapiens), P42336 [M1043I] (P42336 whole entry M1043I, canonical isoform): as the sequence (P42336 whole entry H1047Y, canonical isoform) above, with M1043I, Y1047H counted along it

[14] = biological target: Ribosomal protein S6 kinase alpha-5 (Homo sapiens) (UniProt O75582); test: Selectivity interaction (KinomeScan (DiscoverX)) EUB0000045b RPS6KA5; settings: at 10 µM
[15] = biological target: Myosin-IIIa (Homo sapiens) (UniProt Q8NEV4); test: Selectivity interaction (KinomeScan (DiscoverX)) EUB0000618a MYO3A; settings: at 10 µM
[16] = biological target: Mitogen-activated protein kinase kinase kinase 10 (Homo sapiens) (UniProt Q02779); test: Selectivity interaction (KinomeScan (DiscoverX)) EUB0000618a MAP3K10; settings: at 10 µM
Chain of Mitogen-activated protein kinase kinase kinase 10 (Homo sapiens) (Q02779 whole entry, looked up): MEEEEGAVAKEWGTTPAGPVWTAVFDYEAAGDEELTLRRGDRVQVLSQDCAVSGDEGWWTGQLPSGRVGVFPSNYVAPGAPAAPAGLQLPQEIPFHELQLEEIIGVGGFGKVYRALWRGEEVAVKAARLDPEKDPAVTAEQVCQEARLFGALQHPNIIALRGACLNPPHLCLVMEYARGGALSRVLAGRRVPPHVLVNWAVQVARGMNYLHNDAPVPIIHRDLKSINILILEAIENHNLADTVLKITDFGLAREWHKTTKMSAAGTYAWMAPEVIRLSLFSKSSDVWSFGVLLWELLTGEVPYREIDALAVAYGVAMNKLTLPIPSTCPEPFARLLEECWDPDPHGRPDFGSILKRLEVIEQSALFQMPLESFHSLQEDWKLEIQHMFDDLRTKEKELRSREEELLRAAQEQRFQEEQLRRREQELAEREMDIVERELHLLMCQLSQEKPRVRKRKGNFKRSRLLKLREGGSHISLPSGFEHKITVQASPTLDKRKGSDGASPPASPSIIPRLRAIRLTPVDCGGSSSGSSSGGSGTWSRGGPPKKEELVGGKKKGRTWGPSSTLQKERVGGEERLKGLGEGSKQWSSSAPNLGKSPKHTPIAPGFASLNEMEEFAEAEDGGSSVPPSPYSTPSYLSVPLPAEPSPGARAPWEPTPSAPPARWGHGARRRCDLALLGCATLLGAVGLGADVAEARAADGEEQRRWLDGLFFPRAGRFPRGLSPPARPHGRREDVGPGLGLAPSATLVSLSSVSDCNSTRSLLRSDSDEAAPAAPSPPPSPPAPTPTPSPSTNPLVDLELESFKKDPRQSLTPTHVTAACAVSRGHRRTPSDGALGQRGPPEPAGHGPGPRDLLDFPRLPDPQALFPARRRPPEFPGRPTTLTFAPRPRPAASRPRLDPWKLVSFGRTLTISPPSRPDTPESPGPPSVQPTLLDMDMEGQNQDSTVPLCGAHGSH

[17] = biological target: T2, Megakaryocyte-associated tyrosine-protein kinase (Homo sapiens) (UniProt P42679); test: Selectivity interaction (KinomeScan (DiscoverX)) EUB0001619a MATK; settings: at 1 µM
T2 sequence (whole entry): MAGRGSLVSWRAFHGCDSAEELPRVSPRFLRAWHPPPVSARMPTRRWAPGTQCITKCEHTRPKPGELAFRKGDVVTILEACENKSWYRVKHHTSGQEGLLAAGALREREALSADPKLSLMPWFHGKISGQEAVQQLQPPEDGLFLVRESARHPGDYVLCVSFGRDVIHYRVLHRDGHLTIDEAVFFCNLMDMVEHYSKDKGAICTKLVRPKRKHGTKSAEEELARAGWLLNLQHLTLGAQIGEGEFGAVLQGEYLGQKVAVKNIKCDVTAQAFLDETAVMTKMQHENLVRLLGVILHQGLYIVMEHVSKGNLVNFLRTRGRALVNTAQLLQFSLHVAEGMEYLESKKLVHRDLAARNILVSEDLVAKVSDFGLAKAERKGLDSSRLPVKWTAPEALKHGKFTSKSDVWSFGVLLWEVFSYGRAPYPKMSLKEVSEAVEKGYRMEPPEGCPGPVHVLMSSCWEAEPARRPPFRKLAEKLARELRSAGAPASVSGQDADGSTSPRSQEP

Chain of Mitogen-activated protein kinase kinase kinase 1 (Q13233 whole entry): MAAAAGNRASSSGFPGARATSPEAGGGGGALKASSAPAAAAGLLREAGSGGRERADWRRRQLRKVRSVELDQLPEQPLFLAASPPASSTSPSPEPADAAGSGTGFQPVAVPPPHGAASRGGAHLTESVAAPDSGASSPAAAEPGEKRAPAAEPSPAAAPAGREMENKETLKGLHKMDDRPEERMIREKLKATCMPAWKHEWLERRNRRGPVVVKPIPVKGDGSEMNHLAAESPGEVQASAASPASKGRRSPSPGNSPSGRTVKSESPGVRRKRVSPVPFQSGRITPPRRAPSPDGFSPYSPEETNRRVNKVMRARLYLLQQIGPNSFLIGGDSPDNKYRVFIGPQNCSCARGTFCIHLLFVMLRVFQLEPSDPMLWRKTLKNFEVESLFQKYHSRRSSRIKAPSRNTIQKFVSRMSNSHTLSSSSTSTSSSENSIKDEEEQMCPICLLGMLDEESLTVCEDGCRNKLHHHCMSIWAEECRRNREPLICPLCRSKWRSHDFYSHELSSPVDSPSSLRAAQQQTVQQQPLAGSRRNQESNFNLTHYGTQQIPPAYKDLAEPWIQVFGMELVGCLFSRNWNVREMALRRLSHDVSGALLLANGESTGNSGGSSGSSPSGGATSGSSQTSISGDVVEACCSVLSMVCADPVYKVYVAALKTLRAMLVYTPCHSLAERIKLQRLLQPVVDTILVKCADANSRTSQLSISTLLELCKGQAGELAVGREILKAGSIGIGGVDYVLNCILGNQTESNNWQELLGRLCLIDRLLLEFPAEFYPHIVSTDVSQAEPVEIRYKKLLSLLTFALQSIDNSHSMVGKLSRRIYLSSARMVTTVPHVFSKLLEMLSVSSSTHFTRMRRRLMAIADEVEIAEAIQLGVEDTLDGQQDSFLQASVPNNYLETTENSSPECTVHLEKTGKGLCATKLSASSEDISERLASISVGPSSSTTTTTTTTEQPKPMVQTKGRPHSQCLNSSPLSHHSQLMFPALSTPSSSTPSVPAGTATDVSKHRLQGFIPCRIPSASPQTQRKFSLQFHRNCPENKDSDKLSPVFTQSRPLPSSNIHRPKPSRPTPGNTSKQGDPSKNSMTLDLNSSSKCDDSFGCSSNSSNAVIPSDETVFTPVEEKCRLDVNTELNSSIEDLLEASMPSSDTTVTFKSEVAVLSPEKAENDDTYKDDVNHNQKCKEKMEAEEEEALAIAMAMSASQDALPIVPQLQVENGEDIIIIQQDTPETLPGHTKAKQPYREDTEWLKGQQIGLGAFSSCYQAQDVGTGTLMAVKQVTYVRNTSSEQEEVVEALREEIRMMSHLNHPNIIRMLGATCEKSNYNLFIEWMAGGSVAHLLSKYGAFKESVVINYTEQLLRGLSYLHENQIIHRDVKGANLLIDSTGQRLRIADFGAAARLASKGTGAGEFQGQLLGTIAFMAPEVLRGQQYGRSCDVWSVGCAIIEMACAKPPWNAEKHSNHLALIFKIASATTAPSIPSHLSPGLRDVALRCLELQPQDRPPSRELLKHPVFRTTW

`CN(C)CCOc1ccc(-c2nc(-c3ccncc3)c(-c3ccc4c(c3)CC/C4=N\O)[nH]2)cc1` showed a % of control [1] of 100%.
In the case of `C=CC(=O)Nc1cccc(C(=O)Nc2ccc(Nc3cc(-c4[nH]c(SC)nc4C)ccn3)cc2)c1`, the % of control ([2]; at 1 µM) is reported as 100% and the % of control ([2]; at 5 µM) is reported as 96%.
In the case of `CN(C(=O)c1cnn2cccnc12)c1cc2c(cc1N1CCOCC1)C(=O)N(C[C@@H](F)C(C)(C)O)C2`, the dTM [3] is reported as -0.4 K.
With `CCc1cccc(CC)c1NC(=O)c1nn(C)c2c1CCc1cnc(Nc3ccc(C(=O)NC4CCN(C)CC4)cc3OC(F)(F)F)nc1-2` the IC50 (Aurora kinase B) was > 10 µM.
`COc1cc(Nc2nc(C)cc(-c3cnn4nc(OC)ccc34)n2)cc(C(F)(F)F)c1` was tested, and the % of control [4] was 76%, the % of control [5] was 77% and the % of control [6] was 100%. The % of control [7] was 46%, the % of control [8] was 100% and the % of control [9] was 66%. For the same compound, the % of control [10] was 59%, the % of control [11] was 71% and the % of control [12] was 85%. The % of control [13] was 100%.
Compound `C=CC(=O)Nc1cc(-n2c(=O)ccc3cnc4ccc(-c5ccc(NS(C)(=O)=O)cc5)cc4c32)ccc1C` has a % of control [14] of 80%.
For `O[C@H]1CC[C@H](Nc2ncc3nc(Nc4c(F)cc(F)cc4F)n([C@H]4CCOC4)c3n2)CC1`, the % of control [15] was 100% and the % of control [16] was 100%.
In the case of `N#Cc1cccc(-c2c[nH]c3ncnc(N4CCOCC4)c23)c1`, the % of control [17] is reported as 82%.
